Measurements published in article PMC11557314 (Frontiers in Pharmacology, 2024).
Where no end group is shown, it is not given here.

What was measured:
[1] = biological target: T1, hKOPr (Homo sapiens, UniProt P41145); assay: biochemical; conditions: for Emax: read-out: Efficacy at hKOPr Emax
[2] = biological target: T1, hKOPr; format: binding; conditions: for Ki: read-out: Ki hKOPr
[3] = biological target: T2, hDOPr (Homo sapiens, UniProt P41143); assay: [35S]GTPγS functional assay on hDOPr-CHO cell membranes; format: biochemical; conditions: Table 3, mean ± SEM; for hDOPr % stim, stimulation of [35S]GTPγS binding: normalized to DynA; for EC50: read-out: hDOPr EC50, stimulation of [35S]GTPγS binding
T2 sequence (P41143 whole entry): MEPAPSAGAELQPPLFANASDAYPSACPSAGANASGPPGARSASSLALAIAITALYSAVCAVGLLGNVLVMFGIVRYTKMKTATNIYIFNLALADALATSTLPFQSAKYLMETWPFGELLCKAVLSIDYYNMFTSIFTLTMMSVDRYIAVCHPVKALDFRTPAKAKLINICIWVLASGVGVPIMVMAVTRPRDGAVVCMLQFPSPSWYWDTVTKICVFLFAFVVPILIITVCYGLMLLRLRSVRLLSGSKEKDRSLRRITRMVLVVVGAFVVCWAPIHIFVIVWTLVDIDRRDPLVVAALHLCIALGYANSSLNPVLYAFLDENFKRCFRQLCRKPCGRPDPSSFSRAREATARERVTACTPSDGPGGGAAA
Experimental: CHO cells stably transfected with human KOPr, MOPr, and DOPr (hKOPr-CHO, hMOPr-CHO, and hDOPr-CHO, respectively) were provided by Prof. Liu-Chen (Temple University, Philadelphia, United States). The cells were grown in Gibco™ Dulbecco’s minimal essential medium (DMEM) for hKOPr-CHO or Gibco™ DMEM/F-12 for hMOPr and hDOPr. Both media were supplemented with 10% FBS (Gibco™), GlutaMAX (100 μg/mL; Gibco™), penicillin/streptomycin (100 μg/mL; Gibco™), and geneticin (G418, 400 μg/mL; Gibco™). HEK 293 cells were grown in high-glucose DMEM supplemented with 10% FBS (Gibco™), GlutaMAX (100 μg/mL; Gibco™), and penicillin/streptomycin (100 μg/mL; Gibco™). Cell cultures were maintained in a Heracell™ 150i CO2 incubator at 37°C and 5.0% CO2.
Functional assays were conducted on hKOPr-CHO, hMOPr-CHO, and hDOPr-CHO cell membranes (see above). The membranes were prepared in a buffer containing 20 mM HEPES, 10 μM GDP, cell membrane (10–30 μg), and 0.05 nM [^35S]GTPγS. The buffer containing the cell membranes was incubated with an increasing concentration of the test peptide diluted in 1 × HEPES, pH 7.4, in a total volume of 1 mL, for 60 min at 25°C. The peptide solutions were replaced by diluents for untreated controls. Non-specific binding was determined using unlabeled 10 μM GTPγS. Samples were rapidly washed three times with Tris-HCl and filtered through glass fiber filters (GF/B Whatman). The bound radioactivity was measured by liquid scintillation (Carl Roth GmbH, Karlsruhe, Germany) counting on a Packard 1600 TR Tri-Carb Beta counter (Canberra, Belgium).

[4] = biological target: T3, hMOPr (Homo sapiens, UniProt P35372); format: biochemical; conditions: for EC50: read-out: hMOPr EC50, stimulation of [35S]GTPγS binding
T3 sequence (P35372 whole entry): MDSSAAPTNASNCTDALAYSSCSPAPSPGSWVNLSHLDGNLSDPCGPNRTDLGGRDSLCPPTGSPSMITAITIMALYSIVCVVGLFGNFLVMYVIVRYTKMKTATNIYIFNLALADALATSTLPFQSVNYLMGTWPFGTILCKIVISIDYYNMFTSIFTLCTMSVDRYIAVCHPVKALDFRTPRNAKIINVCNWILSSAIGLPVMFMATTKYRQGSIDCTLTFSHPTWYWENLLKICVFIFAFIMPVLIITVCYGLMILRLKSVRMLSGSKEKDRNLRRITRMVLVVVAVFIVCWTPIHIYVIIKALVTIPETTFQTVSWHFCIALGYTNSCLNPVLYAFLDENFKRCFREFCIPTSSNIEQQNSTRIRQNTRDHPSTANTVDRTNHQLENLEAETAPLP

[5] = system: hKOPr; assay: Biased factor calculation from GTPγS and PRESTO-Tango data; design: species or system human; conditions: G-protein vs β-arrestin, DynA as reference; below 1 = β-arrestin bias
Excerpt: To perform biased factor analyses, we followed the step-by-step protocol described by [Nagi and Pineyro (2016)]. In short, curve fitting was used to calculate τ and Ka values for G-protein and β-arrestin pathway activation. Log(τ/Ka) ratios were subtracted by log(τ/Ka) of DynA as the reference to yield ΔLog(τ/Ka) values for each peptide. In a final step for each peptide, ΔLog (τ/Ka) values for G-protein pathway activation were subtracted from ΔLog(τ/Ka) values for β-arrestin pathway activation and vice versa to calculate ΔΔLog(τ/Ka). The biased factor is yielded by delogging ΔΔLog (τ/Ka).
To confidently identify a G-protein-biased peptide of interest, it is essential to keep in mind that the responses we collected through GTPγS and PRESTO-Tango assay are not solely determined by drug signaling properties but also by the way the cell and different assays “perceive” the generation of this response. These different “perceptions” of the pharmacological stimulus may themselves be responsible for an imbalance among signals from different pathways. To avoid this, and to be able to correctly estimate whether a peptide is indeed biased, we applied the method proposed by [Kenakin et al. (2012)], that is based on the operational method proposed by [Black and Leff (1983)]. This method takes into consideration receptor occupation by the agonist, communication of the pharmacological stimulus to the system, and the processing of the stimulus by the system that produces the response.

[6] = biological target: T3, hMOPr; assay: Competitive radio binding assay with [3H]-DAMGO on hMOPr-CHO cell membranes; conditions: read-out: Ki hMOPr; [3H]-DAMGO 1 nM, 60 min 25°C; mean ± SEM
[7] = biological target: T2, hDOPr; assay: Competitive radio binding assay with [3H]-diprenorphine on hDOPr-CHO cell membranes; conditions: read-out: Ki hDOPr; [3H]-diprenorphine 1 nM, 60 min 25°C; mean ± SEM
[8] = biological target: T1, hKOPr; assay: cell-based; format: cell-based; conditions: for Emax: HEK293, read-out: β-Arrestin recruitment, efficacy at hKOPr Emax; for EC50: read-out: β-Arrestin recruitment, potency at hKOPr EC50
[9] = read-out: Potency at hKOPr EC50
[10] = read-out: hKOPr EC50, stimulation of [35S]GTPγS binding

T1 sequence (P41145 whole entry): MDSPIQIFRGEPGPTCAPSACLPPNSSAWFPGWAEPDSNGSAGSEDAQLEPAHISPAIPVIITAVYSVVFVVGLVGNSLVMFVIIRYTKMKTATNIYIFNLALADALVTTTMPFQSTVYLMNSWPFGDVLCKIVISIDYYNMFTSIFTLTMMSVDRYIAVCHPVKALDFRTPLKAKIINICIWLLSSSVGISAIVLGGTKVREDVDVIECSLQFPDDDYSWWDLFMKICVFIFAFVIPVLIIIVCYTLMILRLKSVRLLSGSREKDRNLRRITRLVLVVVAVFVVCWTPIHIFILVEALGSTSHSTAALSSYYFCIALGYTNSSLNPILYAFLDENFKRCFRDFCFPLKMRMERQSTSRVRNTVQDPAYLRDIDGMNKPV

| Sequence | Selectivity DOPr/KOPr (GTPγS) [1] | Selectivity MOPr/KOPr (GTPγS) [1] | hKOPr % stim, stimulation of [35S]GTPγS binding [1] | preference for hKOPr over hDOPr (GTPγS) [1] | Emax [1] | EC50 [1, 9] | EC50 [1, 10] | Selectivity DOPr/KOPr [2] | Selectivity MOPr/KOPr [2] | Ki [2] | hDOPr % stim, stimulation of [35S]GTPγS binding [3] | EC50 [3] | hMOPr % stim, stimulation of [35S]GTPγS binding [4] | EC50 [4] | biased factor at hKOPr [5] | Ki [6] | Ki [7] | Emax [8] | EC50 [8] | other results |
| --- | --- | --- | --- | --- | --- | --- | --- | --- | --- | --- | --- | --- | --- | --- | --- | --- | --- | --- | --- | --- |
| YGGFSRRQFKVVT [DynB_L5S] | 17 | 6 | 99.1 ± 2.1% | 17 fold | 99.1 ± 2.1% | 0.0177 ± 0.00284 µM | 0.0177 ± 0.0028 µM | 4,153 | 135 | 0.00014 µM | 86.7 ± 9.2% | 0.31 ± 0.0504 µM | 93.4 ± 5.6% | 0.107 ± 0.0086 µM | 0.7 ± 0.2 | 0.0186 ± 0.0013 µM | 0.573 ± 0.0226 µM | 95.1 ± 7.7% | 0.146 ± 0.0265 µM | potency for β-arrestin recruitment compared to DynB_WT [8]: significantly lower potency |
| YGAFLRRAFKVVT [DynB_G3A/Q8A] | 84 | 20 | 88.6 ± 3.1% | 84 fold | 88.6 ± 3.1% | 0.0146 ± 0.00157 µM | 0.0146 ± 0.0016 µM | 778 | 161 | 0.00054 µM | 86.4 ± 10.3% | 1.23 µM | 111 ± 7.7% | 0.297 ± 0.0466 µM | 0.6 ± 0.2 | 0.0861 ± 0.007 µM | 0.417 ± 0.052 µM | 88.7 ± 2.6% | 0.0661 ± 0.0016 µM | potency for hKOPr as compared to DynB (GTPγS) [1]: minor reduction in the potency; preference for hKOPr over hMOPr (GTPγS) [1]: 20 fold; stimulation of the receptor (β-arrestin recruitment) in comparison to DynB_WT [8]: lower stimulation |
